Where “and” joins values, the source holds several entries; their conditions need not be identical. Equal entries are not always repeated. Where two headings read alike, the source gives them in different places. Marks after values point to notes of the source that are not given here.
Legend:
Zebra mussels [1] = test: Experiment 1: toxicity of different masses of KCl to Zebra mussels over two days; assay type: in vivo, Dreissena polymorpha
Description: The toxicity of KCl alone to Zebra mussels is illustrated in Table 1 below, which gives the results of the following experiment:
1) A series of pots where filled with 20 ml of distilled water plus a specified mass of KCl crystals, ground to less than 53 microns. The masses of KCl were chosen to represent the total amount of KCl that would be ingested by a mussel filtering 1 litre of water per day.
2) One mussel was placed in each pot (it was assumed that the mussel would continuously re-filter the limited amount of solution in the pot and thus ingest the required amount of KCl.

Zebra mussels [2] = assay type: in vivo, Dreissena polymorpha; details: Mass of toxin 100 mg
Source text: The toxicity of an alternative toxin was also investigated and compared with that of KCl.

Zebra mussels [3] = test: Experiment 8: Batch 7 particles versus KCl in beakers; assay type: in vivo, Dreissena polymorpha; details: for No. of live mussels in each pot: 1.15 g KCl
Description: A batch of particles (“Batch 7”) was manufactured by a fluidised bed coating method. 98 μm KCl particles were passed through a 350 μm sieve with 1% silica to help fluidisation. 800 g of solids were sprayed with palmitic acid (MP 61° C.) for 20 minutes at approximately 12 ml min^−1. 400 g of the resulting solids were then further coated with palmitic acid to finally produce particles containing between 20 and 25% wt of KCl.
40 1-litre beakers were filled with 500 ml of tap water and aerated overnight in a temperature controlled room at 25° C. Ten large Zebra mussels were placed into each beaker, attempting to keep a similar size range in all. Five different treatments were applied (such that each had eight replicates); • 1. 5 g of (Batch 7) was added. • 2. 0.5 g of (Batch 7) was added. • 3. 0.05 g of (Batch 7) was added. • 4. 5 g of Palmitic acid alone was added. • 5. 1.15 g of KCl (the same amount by mass as in 5 g of Batch 7) was added.
Each treatment substance was thoroughly stirred into each beaker and aeration continued for the duration of the experiment. At reasonably regular intervals, the number of dead mussels (as indicated by gape) were counted in each pot, before being removed and measured. This was continued until most were dead, or 72 hours had elapsed.

Zebra Mussel = details: cited from earlier work
Rainbow Trout = Rainbow Trout 0.8-1.2 g; cited from earlier work
Channel Catfish = Channel Catfish 0.8-1.2 g; cited from earlier work
Threehorn Wartyback = tested on: Threehorn Wartyback; set-up: unit not given here; details: Threehorn Wartyback 30-50 mm; cited from earlier work

In the case of [Cl-].[K+] [KCl, potassium chloride], the state of mussel (Zebra mussels [1]; 0.1 mg KCl, 17/03/99 16:30) is reported as “Alive”, the state of mussel (Zebra mussels [1]; 0.1 mg KCl, 18/03/99 11:30) is reported as “Alive” and the state of mussel (Zebra mussels [1]; 0.1 mg KCl, 18/03/99 13:30) is reported as “Alive”. The state of mussel (Zebra mussels [1]; 0.1 mg KCl, 19/03/99 16:00) was “Alive”, the state of mussel (Zebra mussels [1]; 0.5 mg KCl, 17/03/99 16:30) was “Alive” and the state of mussel (Zebra mussels [1]; 0.5 mg KCl, 18/03/99 11:30) was “Alive”. For the same molecule, the state of mussel (Zebra mussels [1]; 0.5 mg KCl, 18/03/99 13:30) was “Closed”, the state of mussel (Zebra mussels [1]; 0.5 mg KCl, 19/03/99 16:00) was “Alive” and the state of mussel (Zebra mussels [1]; 1 mg KCl, 17/03/99 16:30) was “Alive”. The state of mussel (Zebra mussels [1]; 1 mg KCl, 18/03/99 11:30) was “Alive”, the state of mussel (Zebra mussels [1]; 1 mg KCl, 18/03/99 13:30) was “Alive” and the state of mussel (Zebra mussels [1]; 1 mg KCl, 19/03/99 16:00) was “Alive”. The state of mussel (Zebra mussels [1]; 5 mg KCl, 17/03/99 16:30) was “Alive”, the state of mussel (Zebra mussels [1]; 5 mg KCl, 18/03/99 11:30) was “Alive” and the state of mussel (Zebra mussels [1]; 5 mg KCl, 18/03/99 13:30) was “Alive”. The state of mussel (Zebra mussels [1]; 5 mg KCl, 19/03/99 16:00) was “Alive”, the state of mussel (Zebra mussels [1]; 10 mg KCl, 17/03/99 16:30) was “Alive” and the state of mussel (Zebra mussels [1]; 10 mg KCl, 18/03/99 11:30) was “Alive”. The state of mussel (Zebra mussels [1]; 10 mg KCl, 18/03/99 13:30) was “Closed”, the state of mussel (Zebra mussels [1]; 10 mg KCl, 19/03/99 16:00) was “Dead” and the state of mussel (Zebra mussels [1]; 25 mg KCl, 17/03/99 16:30) was “Alive”. The state of mussel (Zebra mussels [1]; 25 mg KCl, 18/03/99 11:30) was “Dead”, the state of mussel (Zebra mussels [1]; 25 mg KCl, 18/03/99 13:30) was “Dead” and the state of mussel (Zebra mussels [1]; 25 mg KCl, 19/03/99 16:00) was “Dead”. For the same molecule, the state of mussel (Zebra mussels [1]; 50 mg KCl, 17/03/99 16:30) was “Alive”, the state of mussel (Zebra mussels [1]; 50 mg KCl, 18/03/99 11:30) was “Dead” and the state of mussel (Zebra mussels [1]; 50 mg KCl, 18/03/99 13:30) was “Dead”. For the same molecule, the state of mussel (Zebra mussels [1]; 50 mg KCl, 19/03/99 16:00) was “Dead”, the “effectiveness of KCl alone over the test period” value (Zebra mussels [1]; lower concentrations) was “not effective” and the “Time for mortality of all mussels” value (Zebra mussels [2]) was 8 h. The mortality (Zebra mussels [2]; at 8 hours) was 60%, the “No. of live mussels in each pot” value (Zebra mussels [3]; 0.5 hrs) was 10 and the “No. of live mussels in each pot” value (Zebra mussels [3]; 1 hrs) was 10 and 9. For the same molecule, the “No. of live mussels in each pot” value (Zebra mussels [3]; 1.5 hrs) was 10 and 9, the “No. of live mussels in each pot” value (Zebra mussels [3]; 2 hrs) was 10 and 9 and 7 and the “No. of live mussels in each pot” value (Zebra mussels [3]; 3 hrs) was 9 and 8 and 7 and 10. For the same molecule, the “No. of live mussels in each pot” value (Zebra mussels [3]; 3.5 hrs) was 9 and 8 and 7 and 6, the “No. of live mussels in each pot” value (Zebra mussels [3]; 4.5 hrs) was 8 and 7 and 5 and 6 and 9 and the “No. of live mussels in each pot” value (Zebra mussels [3]; 5 hrs) was 7 and 6 and 4 and 5 and 8. The “No. of live mussels in each pot” value (Zebra mussels [3]; 6 hrs) was 6 and 4 and 5 and 7, the “No. of live mussels in each pot” value (Zebra mussels [3]; 7.5 hrs) was 6 and 4 and 3 and 5 and the mortality (Zebra mussels [3]; 1.15 g of KCl, especially over the first 8 hours) was “rapid mortality”. The 48-hour LC50 (Zebra Mussel; Zebra Mussel 5-8 mm) was 147 µg/mL, the 48-hour LC50 (Zebra Mussel; Zebra Mussel 20-25 mm) was 150 µg/mL and the 48-hour LC50 (Rainbow Trout) was 1610 µg/mL. For the same molecule, the 48-hour LC50 (Channel Catfish) was 720 µg/mL and the “48-hour LC50” value (Threehorn Wartyback) was >2000^a.

Source: US7378104B2, “Delivering substances to invertebrate organisms” (priority 2000, dated 2008)
